Our source for the IC50 values is US9862707B2, “TrkA kinase inhibitors, compositions and methods thereof” (Merck Sharp & Dohme Corp., priority 2014, dated 2018).

Broadly, the IC50 is the concentration that inhibits the measured activity by half.

Chain of human TrkA receptor (P04629 33-796): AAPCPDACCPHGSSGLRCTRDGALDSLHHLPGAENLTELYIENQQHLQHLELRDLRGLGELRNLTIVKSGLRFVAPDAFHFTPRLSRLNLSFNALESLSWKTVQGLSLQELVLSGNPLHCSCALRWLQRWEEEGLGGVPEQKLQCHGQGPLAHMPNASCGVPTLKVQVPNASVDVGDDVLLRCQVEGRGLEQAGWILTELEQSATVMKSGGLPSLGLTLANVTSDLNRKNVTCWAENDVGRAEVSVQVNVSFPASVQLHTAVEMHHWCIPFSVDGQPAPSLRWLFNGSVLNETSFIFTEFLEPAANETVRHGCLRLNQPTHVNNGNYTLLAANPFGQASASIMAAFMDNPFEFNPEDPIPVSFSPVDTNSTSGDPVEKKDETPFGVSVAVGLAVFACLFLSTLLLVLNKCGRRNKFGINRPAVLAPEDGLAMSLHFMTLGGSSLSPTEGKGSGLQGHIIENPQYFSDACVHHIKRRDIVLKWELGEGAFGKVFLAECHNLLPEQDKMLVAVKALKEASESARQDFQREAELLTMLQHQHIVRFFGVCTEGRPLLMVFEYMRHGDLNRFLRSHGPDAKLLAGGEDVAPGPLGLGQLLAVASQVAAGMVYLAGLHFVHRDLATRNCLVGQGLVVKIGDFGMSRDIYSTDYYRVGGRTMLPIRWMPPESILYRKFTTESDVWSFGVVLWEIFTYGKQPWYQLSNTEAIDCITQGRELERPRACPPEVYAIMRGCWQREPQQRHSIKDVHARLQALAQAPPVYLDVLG

This experiment concerns the target human TrkA receptor (Homo sapiens (Human), UniProt P04629). Kind of experiment: TrkA functional activity, DiscoverX PathHunter assay. The experiment is classed as cell-based. Particulars: U2OS cells expressing human TrkA-PK, Shc1-EA and p75NTR; compound 1 h, then NGF at ~80% of maximal response for 3 h; luminescence.
Protocol: TrkA functional activity was measured using a DiscoverX PathHunter assay. In this assay, U2OS cells express the human TrkA receptor as a fusion with the weakly complementing fragment of B-galactosidase, which DiscoverX calls “Prolink (PK)”; additionally, Shc1 is fused with a larger fragment, which is called “Enzyme Acceptor (EA)”. Activation of the TrkA receptor, upon NGF addition, results in the kinase domain being phosphorylated, resulting in subsequent recruitment of Shc1-EA protein. That recruitment results in an active B-galactosidase enzyme that is detected by addition of a chemiluminescent substrate. The human p75^NTR protein was also expressed as a co-receptor for NGF.
All reagents were purchased from DiscoverX, except for the receptor agonists (NGF, BDNF, NT3) which were purchased from Peprotech. Cells were expanded and frozen into cryovials, and stored in the vapor phase of liquid nitrogen, and thawed immediately before use. Thawed cells were added to a 384-well plate at 7500 cells/well, and allowed to incubate overnight. Compound at various concentrations was added the following morning and allowed to incubate on cells for 1 h. Then, NGF was added at a concentration sufficient to elicit ˜80% of a maximal response and allowed to incubate for 3 h at ambient temperature. DiscoverX PathHunter detection reagent was then added and the plate was further incubated for 1 h in the dark. The plate was then read via luminescence on the Perkin Elmer Envision.
On to `CC(O)c1cnc2c(NC(=O)c3cc(-c4ncccn4)c(C(F)(F)F)cc3Cl)n(-c3ccccc3)nc2c1` (single isomer, unassigned; isomer b) [Compound 36, (R or S)-2-chloro-N-[6-(1-hydroxyethyl)-2-phenyl-2H-pyrazolo[4,3-b]pyridin-3-yl]-5-pyrimidin-2-yl-4-(trifluoromethyl)benzamide, isomer B], for which the IC50 stood at 2.4 nM.
As for `CC(O)c1ccc2c(NC(=O)c3cc(-c4ncccn4)c(C(F)(F)F)cc3Cl)n(-c3ccccc3)nc2c1` (single isomer, unassigned; isomer b) [Compound 38, (R or S)-2-chloro-N-[6-(1-hydroxyethyl)-2-phenyl-2H-indazol-3-yl]-5-pyrimidin-2-yl-4-(trifluoromethyl)benzamide, isomer B], the IC50 was found to be 4.9 nM.
As for `O=C(Nc1c2ccc(C(O)C(F)F)cc2nn1-c1ccccc1)c1cc(-c2ncccn2)c(C(F)(F)F)cc1F` (single isomer, unassigned; isomer b) [Compound 57, (R or S)-N-[6-(2,2-difluoro-1-hydroxyethyl)-2-phenyl-2H-indazol-3-yl]-2-fluoro-5-pyrimidin-2-yl-4-(trifluoromethyl)benzamide, isomer B], the IC50 is 13 nM.
Consider `O=C(Nc1c2cc(C(O)C(F)F)ccc2nn1-c1ccccc1)c1cc(-c2ncccn2)c(C(F)(F)F)cc1F` (single isomer, unassigned; isomer b) [Compound 59, (R or S)-N[5-(2,2-difluoro-1-hydroxyethyl)-2-phenyl-2H-indazol-3-yl]-2-fluoro-5-pyrimidin-2-yl-4-(trifluoromethyl)benzamide, isomer B], for which the IC50 was determined as 4.9 nM.
`O=C(Nc1c2ncc(C(O)CO)cc2nn1-c1ccccc1)c1cc(-c2ncccn2)c(C(F)(F)F)cc1Cl` (single isomer, unassigned; isomer b) [Compound 65, (R or S)-2-chloro-N-[6-(1,2-dihydroxyethyl)-2-phenyl-2H-pyrazolo[4,3-b]pyridin-3-yl]-5-pyrimidin-2-yl-4-(trifluoromethyl)benzamide, isomer B] registered an IC50 of 29 nM.
`O=C(Nc1c2ncccc2nn1-c1ccccc1)c1cc(-c2ncccn2)c(C(F)(F)F)cc1F` [Compound 1, 2-Fluoro-N-(2-phenyl-2H-pyrazolo[4,3-b]pyridin-3-yl)-5-pyrimidin-2-yl-4-(trifluoromethyl)benzamide] showed an IC50 of 5.2 nM.
`O=C(Nc1c2[nH]c(=O)ccc2nn1-c1ccccc1)c1cc(-c2ncccn2)c(C(F)(F)F)cc1F` [Compound 2, 2-Fluoro-N-(5-oxo-2-phenyl-4,5-dihydro-2H-pyrazolo[4,3-b]pyridin-3-yl)-5-(pyrimidin-2-yl)-4-(trifluoromethyl)benzamide] returned an IC50 of 6 nM.
Molecule `O=C(Nc1c2ncccc2nn1-c1cccc(CO)c1)c1cc(-c2ncccn2)c(C(F)(F)F)cc1F` [Compound 3, 2-Fluoro-N-(2-(3-(hydroxymethyl)phenyl)-2H-pyrazolo[4,3-b]pyridin-3-yl)-5-(pyrimidin-2-yl)-4-(trifluoromethyl)benzamide] displayed an IC50 of 122 nM.
With `Cn1ccc(-c2cc(C(=O)Nc3c4cc(C#N)ccc4nn3-c3ccccc3)ccc2C(F)(F)F)n1` [Compound 4, N-(5-cyano-2-phenyl-2H-indazol-3-yl)-3-(1-methyl-1H-pyrazol-3-yl)-4-(trifluoromethyl)benzamide], half-maximal inhibition (IC50) was put at 8.8 nM.
As to `Cn1ccc(-c2cc(C(=O)Nc3c4ncccc4nn3-c3ccccc3)c(F)cc2C(F)(F)F)n1` [Compound 5, 2-fluoro-5-(1-methyl-1H-pyrazol-3-yl)-N-(2-phenyl-2H-pyrazolo[4,3-b]pyridin-3-yl)-4-(trifluoromethyl)benzamide], the IC50 was 0.66 nM.
Molecule `Cn1ccc(-c2cc(C(=O)Nc3c4cccnc4nn3-c3ccccc3)c(F)cc2C(F)(F)F)n1` [Compound 6, 2-fluoro-5-(1-methyl-1H-pyrazol-3-yl)-N-(2-phenyl-2H-pyrazolo[3,4-b]pyridin-3-yl)-4-(trifluoromethyl)benzamide] had an IC50 of 6.1 nM.
To `Cn1ccc(-c2cc(C(=O)Nc3c4cc(C(F)(F)F)ccc4nn3-c3ccccc3)c(F)cc2C(F)(F)F)n1` [Compound 7, 2-fluoro-5-(1-methyl-1H-pyrazol-3-yl)-N-[2-phenyl-5-(trifluoromethyl)-2H-indazol-3-yl]-4-(trifluoromethyl)benzamide] belongs 29 nM; to `COc1ccc2nn(-c3ccccc3)c(NC(=O)c3cc(-c4ncccn4)c(C(F)(F)F)cc3F)c2n1` [Compound 8, 2-fluoro-N-(5-methoxy-2-phenyl-2H-pyrazolo[4,3-b]pyridin-3-yl)-5-pyrimidin-2-yl-4-(trifluoromethyl)benzamide], 18 nM.
The molecule `CC(=O)NCc1cccc(-n2nc3cccnc3c2NC(=O)c2cc(-c3ncccn3)c(C(F)(F)F)cc2F)c1` [Compound 9, N-(2-{3-[(acetylamino)methyl]phenyl}-2H-pyrazolo[4,3-b]pyridin-3-yl)-2-fluoro-5-pyrimidin-2-yl-4-(trifluoromethyl)benzamide] showed an IC50 of 744 nM.
`Cn1ccc(-c2cc(C(=O)Nc3c4cc(CO)ccc4nn3-c3ccccc3)ccc2C(F)(F)F)n1` [Compound 10, N-(5-(Hydroxymethyl)-2-phenyl-2H-indazol-3-yl)-3-(1-methyl-1H-pyrazol-3-yl)-4-(trifluoromethyl)benzamide] displayed an IC50 of 0.84 nM.
`O=C(Nc1c2cc(CO)ncc2nn1-c1ccccc1)c1cc(-c2ncccn2)c(C(F)(F)F)cc1F` [Compound 11, 2-Fluoro-N-(5-(hydroxymethyl)-2-phenyl-2H-pyrazolo[3,4-c]pyridin-3-yl)-5-(pyrimidin-2-yl)-4-(trifluoromethyl)benzamide] came in with an IC50 of 20 nM.
For `O=C(Nc1c2cc(CO)ccc2nn1-c1ccccc1)c1cc(-c2ncccn2)c(C(F)(F)F)cc1F` [Compound 12, 2-fluoro-N-[5-(hydroxymethyl)-2-phenyl-2H-indazol-3-yl]-5-pyrimidin-2-yl-4-(trifluoromethyl)benzamide], the IC50 was 2.6 nM.
To `O=C(Nc1c2ccc(CO)cc2nn1-c1ccccc1)c1cc(-c2ncccn2)c(C(F)(F)F)cc1F` [Compound 13, 2-fluoro-N-[6-(hydroxymethyl)-2-phenyl-2H-indazol-3-yl]-5-pyrimidin-2-yl-4-(trifluoromethyl)benzamide] belongs 3.8 nM.
As for `O=C(Nc1c2ccc(CO)cc2nn1-c1ccccc1)c1cc(-c2cc[nH]n2)c(C(F)(F)F)cc1F` [Compound 14, 2-fluoro-N-[6-(hydroxymethyl)-2-phenyl-2H-indazol-3-yl]-5-(1H-pyrazol-3-yl)-4-(trifluoromethyl)benzamide], the midpoint of inhibition, the IC50, lay at 1.2 nM.
To `Cc1cc(-n2nc3ccc(CO)cc3c2NC(=O)c2cc(-c3ncccn3)c(C(F)(F)F)cc2F)n[nH]1` [Compound 15, 2-fluoro-N-[5-(hydroxymethyl)-2-(5-methyl-1H-pyrazol-3-yl)-2H-indazol-3-yl]-5-pyrimidin-2-yl-4-(trifluoromethyl)benzamide] belongs 74 nM.
`O=C(Nc1c2ccc(CO)cc2nn1-c1ccccc1)c1cc(-c2ncccn2)c(C(F)(F)F)cc1Cl` [Compound 16, 2-chloro-N-[6-(hydroxymethyl)-2-phenyl-2H-indazol-3-yl]-5-pyrimidin-2-yl-4-(trifluoromethyl)benzamide] showed a concentration for half-maximal inhibition (IC50) of 7.9 nM.
`O=C(Nc1c2nc(CO)ccc2nn1-c1ccccc1)c1cc(-c2ncccn2)c(C(F)(F)F)cc1Cl` [Compound 17, 2-chloro-N-[5-(hydroxymethyl)-2-phenyl-2H-pyrazolo[4,3-b]pyridin-3-yl]-5-pyrimidin-2-yl-4-(trifluoromethyl)benzamide] yielded an IC50 of 18 nM.
As for `Cn1ccc(-c2cc(C(=O)Nc3c4cc(CO)ncc4nn3-c3ccccc3)c(F)cc2C(F)(F)F)n1` [Compound 18, 2-fluoro-N-[5-(hydroxymethyl)-2-phenyl-2H-pyrazolo[3,4-c]pyridin-3-yl)-5-(1-methyl-1H-pyrazol-3-yl)-4-(trifluoromethyl)benzamide], half-maximal inhibition (IC50) required 1.9 nM.
Take `CC(C)(O)c1cnc2c(NC(=O)c3cc(-c4ncccn4)c(C(F)(F)F)cc3F)n(-c3ccccc3)nc2c1` [Compound 40, 2-Fluoro-N-(6-(2-hydroxypropan-2-yl)-2-phenyl-2H-pyrazolo[4,3-b]pyridin-3-yl)-5-(pyrimidin-2-yl)-4-(trifluoromethyl)benzamide]: half-maximal inhibition (IC50) was put at 3.9 nM. Compared with the last molecule, the IC50 is about 2.1-fold higher.
Regarding `Cn1ccc(-c2cc(C(=O)Nc3c4ncc(C(C)(C)O)cc4nn3-c3ccccc3)c(F)cc2C(F)(F)F)n1` [Compound 41, 2-Fluoro-N-(6-(2-hydroxypropan-2-yl)-2-phenyl-2H-pyrazolo[4,3-b]pyridin-3-yl)-5-(1-methyl-1H-pyrazol-3-yl)-4-(trifluoromethyl)benzamide], the IC50 is 0.16 nM.
To `Cn1ccc(-c2cc(C(=O)Nc3c4nc(C(C)(C)O)ncc4nn3-c3ccccc3)c(F)cc2C(F)(F)F)n1` [Compound 43, 2-Fluoro-N-(5-(2-hydroxypropan-2-yl)-2-phenyl-2H-pyrazolo[4,3-d]pyrimidin-3-yl)-5-(1-methyl-1H-pyrazol-3-yl)-4-(trifluoromethyl)benzamide] belongs 33 nM; to `CC(C)(O)c1cnc2nn(-c3ccccc3)c(NC(=O)c3cc(-c4ncccn4)c(C(F)(F)F)cc3F)c2c1` [Compound 45, 2-fluoro-N-[5-(1-hydroxy-1-methylethyl)-2-phenyl-2H-pyrazolo[3,4-b]pyridin-3-yl]-5-pyrimidin-2-yl-4-(trifluoromethyl)benzamide], 12 nM.
Turning to `CC(C)(O)c1ccc2c(NC(=O)c3cc(-c4ncccn4)c(C(F)(F)F)cc3Cl)n(-c3ccccc3)nc2c1` [Compound 46, 2-chloro-N-[6-(1-hydroxy-1-methylethyl)-2-phenyl-2H-indazol-3-yl]-5-pyrimidin-2-yl-4-(trifluoromethyl)benzamide], 1.7 nM corresponded to half-maximal inhibition (IC50). This IC50 is about 7.1-fold lower than that of the molecule before.
Molecule `CC(C)(O)c1cnc2c(NC(=O)c3cc(-c4cc[nH]n4)c(C(F)(F)F)cc3F)n(-c3ccccc3)nc2c1` [Compound 47, 2-fluoro-N-[6-(1-hydroxy-1-methylethyl)-2-phenyl-2H-pyrazolo[4,3-b]pyridin-3-yl]-5-(1H-pyrazol-3-yl)-4-(trifluoromethyl)benzamide] yielded an IC50 of 2.6 nM.
